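All cell lines were grown in 96-well plates and treated with compound for 48 hours. TGI denotes the concentration required for complete inhibition of growth.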
Columns and labels:
Assay in all cases: DTP human tumour cell line panel, 48 h
BT-549 breast = test system: BT-549 breast
MALME-3M melanoma = test system: MALME-3M melanoma
EKVX NSCLC = test system: EKVX NSCLC
DMS 114 small cell lung = test system: DMS 114 small cell lung
RXF-631 renal = test system: RXF-631 renal
KM20L2 colon = test system: KM20L2 colon
M19-MEL melanoma = test system: M19-MEL melanoma
HOP-18 NSCLC = test system: HOP-18 NSCLC

## Cc1cc(C)nc(NS(=O)(=O)c2ccc(Nc3c4ccccc4nc4c(C(=O)NCCO)cccc34)cc2)n1
BT-549 breast
  TGI: 34 µM
MALME-3M melanoma
  TGI: 28.7 µM
EKVX NSCLC
  TGI: > 100 µM

## O=C(NN1C(=O)CSC1c1ccc(Cl)c(Cl)c1)c1ccncc1 (stereo not drawn)
MALME-3M melanoma
  TGI: > 100 µM
DMS 114 small cell lung
  TGI: > 100 µM
RXF-631 renal
  TGI: > 100 µM
KM20L2 colon
  TGI: > 100 µM
EKVX NSCLC
  TGI: > 100 µM

## COc1ccc(/C(C)=N/NC(=S)N(C)C)c(O)c1
BT-549 breast
  TGI: 66.6 µM
EKVX NSCLC
  TGI: > 100 µM

## O=c1c2cc3c(=O)n(CCc4ccccc4CO)c(=O)c3cc2c(=O)n1CCc1ccccc1CO
MALME-3M melanoma
  TGI: > 100 µM
DMS 114 small cell lung
  TGI: > 100 µM
M19-MEL melanoma
  TGI: > 100 µM

## CCOC(=O)C1=C(C)NC(=O)N([N+](=O)[O-])C1c1ccccc1C(F)(F)F (stereo not drawn)
BT-549 breast
  TGI: > 100 µM
MALME-3M melanoma
  TGI: > 100 µM

## c1ccc([P+](Cc2csnn2)(c2ccccc2)c2ccccc2)cc1
HOP-18 NSCLC
  TGI: > 100 µM
MALME-3M melanoma
  TGI: > 100 µM
DMS 114 small cell lung
  TGI: > 100 µM
KM20L2 colon
  TGI: > 100 µM
EKVX NSCLC
  TGI: > 100 µM
M19-MEL melanoma
  TGI: > 100 µM

## CCc1cc(=O)n(/C(C)=C/c2ccccc2)n1C
BT-549 breast
  TGI: > 100 µM
EKVX NSCLC
  TGI: > 100 µM

From PubChem BioAssay (NCI)
